Values of other authors, collected in patent publication US20230390541A1, “Dermal Patch for Transdermal Modulation of Ghrelin Pathway” (Resarcion, LLC, priority 2019, published 2023).

Settings: shortest structural analog among truncated ghrelin analogs

Ser^3(octanoyl)-ghrelin (1-5)
activity relative to native ghrelin: activity similar to the native hormone
